Holding throughout (format): cell-based, mouse
Test [1] concerns young T cells. The test is described as follows: Cellular ROS (DCFDA) in young T cells. As to conditions: T cells exposed to heme, 48 hr. The method, then: Functional assays and intracellular ferrous iron staining. Intracellular ferrous iron was measured using FerroOrange (Dojindo, F374). […] All assays were analyzed by flow cytometry.
The test system of test [2] is CD3+ T cells derived from young mice. The test is described as follows: Expression of ferritin, HO-1 and CD39 in young T cells by flow cytometry. Particulars: young T cells exposed to heme. The text has this:
(§1) T cell isolation and culture. T cells were harvested from mice spleens and/or lymph nodes (inguinal, axillary, brachial, mandibular, and jejunal), and purified by magnetic separation. Depending on the specific experiment, either bulk CD3^+ T cells or bulk CD3^+CD4^+ T cells or pure naïve (CD3^+CD4^+CD62L^+ CD441^lo CD25^−) T cells were purified using commercially available kits (StemCell, 19765A, 19852A, 19851A), following the manufacturer instructions. The protocol for isolating pure naïve T cells from aged mice was modified, as additional antibodies were added to the initial antibody cocktail to overcome changes in T cell population composition in the aged. Specifically, biotinylated anti-mouse/human CD44 (BioLegend, IM7), and biotinylated anti-mouse CD25 (miltenyi 130-123-860, REA568), were added to the company's premade antibody cocktail for negative selection of lymphocytes. Furthermore, the present inventors performed a step of positive selection of CD62L^+ naïve T cells, using anti-mouse CD62L microbeads (miltenyi, 130-049-701) and magnetic columns (miltenyi, 130-042-201). Primary T cells were cultured at 37° C. and 5% CO2 in RPMI media, supplemented with: 10% FBS, 10 mM Hepes, penicillin/streptomycin, and 0.035% beta-mercaptoethanol. For activation, cells were cultured on plates pre-coated (overnight at 4° C.) with anti-CD3 (2 μg/mL; clone 145-2C11, BioXCell) and anti-CD28 (4 μg/mL, clone 37.51; BioXCell). Resting cells were supplemented with 5 ng/ml recombinant murine IL-7 (PEPROTECH, 217-17). In some experiments, cell cultures were supplemented with hemin chloride (cayman, 16487), ammonium iron (III) citrate (thermos scientific, A11199.30), BSA (Sigma-Aldrich, A9647), and spleen extract, at different concentrations, as indicated in relevant experiments.
(§2) Flow cytometry. […] Intracellular ferrous iron was measured using FerroOrange (Dojindo F374).

The test system of test [3] is T cells. The test is described as follows: CD63 expression on T cells by flow cytometry. Particulars: T cells cultured with heme at different concentrations. The method, then: as §2
In general terms: A flow cytometer gives signals particle by particle.

Test [4] concerns T cells. The test is described as follows: Lysosomal mass (lysotracker; flow cytometry and fluorescent microscopy). Particulars: T cells +/- activation +/- heme. The method, then:
as §2
Fluorescent microscopy. Cells were stained simultaneously with lysotracker deep red and FerroOrange in HBSS as described above, and imaged using Leica DMI8 inverted fluorescent microscope.

Test [5] deals with CD3+ T cells derived from young mice. The test is described as follows: Proliferation of young T cells stimulated ex vivo with anti-CD3/anti-CD28 (cell trace violet). As to conditions: young T cells activated 48 hr, exposure to heme or SE alone.
Text: as §1, §2

For test [6] the test system is unchanged. The test is described as follows: Viability of young T cells cultured with heme or spleen extract (Zombie, flow cytometry). As to conditions: resting young CD3+ T cells with IL-7, heme for 48 hr.
Text: as §1
Collection of a interstitial fluid-enriched fraction (referred to as spleen extract; SE). Spleens from young or aged mice were harvested, and gently dissociated ontop of a […] cell strainer, in 5 mL PBS or RPMI, 5 min centrifugation at 1350 RPM to separate the cellular pellet from the fluidic fraction, enriched with interstitial components.
as §2

The subject of another test is resting young T cells. The test is described as follows: FOXO1 levels in resting young T cells by flow cytometry. Particulars: resting young T cells incubated ex vivo for 4-48 hr. The method, then:
as §2
Lysosomal dysfunction results in accumulation of late endosomes, also referred to as multi vesicular bodies (MVBs), that are identified by expression of CD63. […] FOXO1 regulates expression of TFEB, the master regulator of lysosomal biogenesis^17. Moreover, FOXO1 expression is critical for maintaining T cell quiescence, and its deficiency induces T cell senescence^18. The present inventors hypothesized that the microenvironment in the aged spleen suppressed FOXO1 expression, thus inducing T cell priming (FIG. 7E-G) and dysregulates lysosomal biogenesis and activity. To test this hypothesis, FOXO1 levels were quantified in resting young T cells that were incubated ex vivo with either heme or SE.

The test system of test [7] is T cells. The test is described as follows: Lysosomal intracellular activity assay. Particulars: T cells activated in the presence of heme.
Test [8] relates to T cells derived from young mice. The test is described as follows: Immunophenotyping of young T cells after ex vivo incubation with heme. As to conditions: young T cells incubated with heme, without TCR-mediated stimulation.
Text: as §1, with “For activation, cells were cultured on plates pre-coated (overnight at 4° C.) with anti-CD3 (2 μg/mL; clone 145-2C11, BioXCell) and anti-CD28 (4 μg/mL, clone 37.51; BioXCell). Resting cells were supplemented with 5 ng/ml recombinant murine IL-7 (PEPROTECH, 217-17). In some experiments, cell cultures were supplemented with hemin chloride (cayman, 16487), ammonium iron (III) citrate (thermos scientific, A11199.30), BSA (Sigma-Aldrich, A9647), and spleen extract, at different concentrations, as indicated in relevant experiments.” left out
as §2

Test [9] concerns young T cells. The test is described as follows: Lipid peroxidation (BODIPY 581/591 C11) in young T cells. As to conditions: T cells exposed to heme.

“Also recorded” adds a separate entry of the source.

As for hemin chloride [heme], the “increase in cellular ROS” value in the test with young T cells [1] is recorded as approximately 2 fold. Further, in test [2], the CD39 expression result is recorded as “also induced; also recorded: sufficient to induce CD39”, the “expression of HO-1” value is reported as “sufficient to induce expression” and the expression of ferritin result was “sufficient to induce expression”. In addition, in [2] (listed as Heme), the CD39 expression entry is “induces expression”, the “expression of HO-1” value was “induces expression” and the expression of ferritin result was “induces expression”. The CD63 expression entry in the test on T cells [3] is given as “induced CD63 expression, in a dose-dependent manner”. Besides, in the test on T cells [4], the lysosomal mass result is on record as “downregulated lysosomal mass”. Also, the proliferation result in [5] is reported as “completely blocked”. Besides, in test [6], the cell viability entry is given as “significantly reduced cell viability, in a dose-dependent manner”. Besides, in test [6] (listed as Heme), the cell viability result is “reduces cell viability”. Further, the FOXO1 levels entry with resting young T cells is “dropped within 4 hr and continued to drop during the 48 hr of incubation”. Also, the lysosomal activity entry with T cells [7] is recorded as “suppressed”. The “T cell differentiation / naïve T cell pool” value in [8] was “sufficient to induce T cell differentiation and deplete the naïve T cell pool”. For the same substance, the lipid peroxidation result in the test on young T cells [9] is recorded as “large induction in lipid peroxidation”.

(Values after US20240325437A1, “METHODS AND COMPOSITIONS FOR USE IN IMPROVING ADAPTIVE IMMUNITY IN THE ELDERLY POPULATION” (Technion Research & Development Foundation Limited, priority 2023, published 2024).)
